Results on two compounds are retold here after paper PMC5884648, “Relationship between the agonist activity of synthetic ligands of TRAIL-R2 and their cell surface binding modes” (Oncotarget, 2018).

*1 amine or outer side, *2 acyl side, *3 side chain or, on linkers, in order; H or OH if unused. Where a SMILES comes first, the peptide text is derived from it. Bridges are numbered along the chain shown (N, C = ends). Roman numbers before positions name the chains, in order. X2 = NC(CCC(=O)[*:1])CCC(=O)[*:2]

In assay [1] the test system is BJAB cells. In words: Cell viability MTS assay, BJAB. It is filed as cell-based, human. Conditions: 24 hours. How it is done: (§1) BJAB, Jurkat and HCT116 cells (10^5 cells/well) were cultured in 100 µL of culture medium in 96-flat bottom well plates. The next day, cells were treated with the indicated concentrations of the different TRAILmin/DR5 peptides. After 24 hours of treatment cell viability measurement was performed by the MTS assay according to the manufacturer specification (Promega Corporation, Madison, WI, USA).
On the technique in general: Tetrazolium dyes change colour on reduction, which living cells bring about.

In assay [2] the target is T1, human TRAIL-R2 (Homo sapiens, UniProt O14763).
T1 construct: purchased Enzo Life Sciences
The assay is described as follows: Surface plasmon resonance on sensor-immobilized TRAIL-R2. It is filed as binding. The settings on record: for koff / kon: SPR, 25° C, Langmuir model. How it is done: SPR assays were performed on a Biacore T200™, at 25° C. The running buffer was HBS-EP [10 mM HEPES (pH 7.4) containing 0.15 M NaCl, 3.4 mM EDTA and 0.005% (v/v) Tween P20]. The human TRAIL-R2 (Enzo Life Sciences, Farmingdale, NY, USA) receptor was immobilized on a sCM5 sensor chip (GE Healthcare) using the standard amine coupling procedure. The receptors were diluted in 10 mM acetate buffer (pH 5.0) at a concentration of 5 μg/mL. The TRAIL-R2 immobilization level on the sensor chip was 430 RU. Peptides were injected at a flow rate of 5 μL/min for 120 s and allowed to dissociate for an additional 420 s. Surfaces were then regenerated for 5 s with 25 mM HCl. All binding curves were double-referenced (i.e. subtraction of the data of the empty flow cell followed by the subtraction of the data from a running buffer injection cycle).
Double-referenced SPR binding curves sets were fitted globally using the BIAevaluation 4.1.1 (GE Healthcare Biacore) or TraceDrawer (Ridgeview Diagnostics AB, Uppsala, Sweden) softwares. The signal recorded with the LigandTracer on an empty spot or slide was subtracted from that recorded on cell-carrying slides. The resulting binding curves were analyzed by kinetic distribution analysis using the tool Interaction Map (Ridgeview Diagnostics AB, Uppsala, Sweden). Interaction Map decomposes the kinetic curve recorded for the binding of a homogeneous ligand to a heterogeneous group of targets into its different components. Results are represented as interaction maps (kon versus koff, log scale), where the color of each populated area represents its degree of contribution to the kinetic curve (red = high contribution, blue = low contribution).
A general note: SPR reads the build-up and loss of mass on a sensor chip optically.

Assay [3] concerns HCT116 cells. In words: Cell viability MTS assay, HCT116. It is filed as cell-based, human. The settings on record: 24 hours. How it is done:
as §1

The test system of assay [4] is Jurkat cells. In words: Cell viability MTS assay, Jurkat. Format: cell-based, human. Conditions: 24 hours. How it is done: as §1
Setting [5] is: TRAIL-R2 surface 1, one:one interaction model.
Setting [6] is: TRAIL-R2 surface 2, one:one interaction model.

T1 sequence (O14763 56-440): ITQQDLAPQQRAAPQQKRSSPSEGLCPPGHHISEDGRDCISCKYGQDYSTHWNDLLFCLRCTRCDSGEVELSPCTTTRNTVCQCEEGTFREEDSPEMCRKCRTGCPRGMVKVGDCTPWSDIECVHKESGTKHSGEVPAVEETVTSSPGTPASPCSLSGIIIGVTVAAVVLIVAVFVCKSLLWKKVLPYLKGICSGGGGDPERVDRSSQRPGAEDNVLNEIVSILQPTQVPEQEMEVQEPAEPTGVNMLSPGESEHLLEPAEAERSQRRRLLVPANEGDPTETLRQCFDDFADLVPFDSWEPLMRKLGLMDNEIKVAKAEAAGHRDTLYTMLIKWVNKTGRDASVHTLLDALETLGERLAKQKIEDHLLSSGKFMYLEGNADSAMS

The term koff denotes a measure of how fast the partners let go of each other. A word on the kon: it is the rate constant with which the complex forms. Read a high kon as faster complex formation. On to `CC[C@H](C)[C@@H]1NC(=O)[C@H](CCCNC(=N)N)NC(=O)[C@H](CC(N)=O)NC(=O)[C@H](CC(=O)O)NC(=O)[C@H](CC(C)C)NC(=O)[C@@H](NC(=O)[C@H](CC(=O)O)NC(=O)[C@H](Cc2c[nH]c3ccccc23)NC(C)=O)CSSC[C@@H](C(=O)N[C@H](C(=O)N[C@@H](CCCCNC(=O)CCC(N)CCC(=O)NCCCC[C@H](NC(=O)[C@@H](NC(=O)[C@@H]2CSSC[C@H](NC(=O)[C@H](CC(=O)O)NC(=O)[C@H](Cc3c[nH]c4ccccc34)NC(C)=O)C(=O)N[C@@H](CC(C)C)C(=O)N[C@@H](CC(=O)O)C(=O)N[C@@H](CC(N)=O)C(=O)N[C@@H](CCCNC(=N)N)C(=O)N[C@@H]([C@@H](C)CC)C(=O)NCC(=O)N[C@@H](CCCNC(=N)N)C(=O)N[C@@H](CCCNC(=N)N)C(=O)N[C@@H](CCC(N)=O)C(=O)N2)C(C)C)C(=O)N[C@@H](CC(C)C)C(N)=O)C(=O)N[C@@H](CC(C)C)C(N)=O)C(C)C)NC(=O)[C@H](CCC(N)=O)NC(=O)[C@H](CCCNC(=N)N)NC(=O)[C@H](CCCNC(=N)N)NC(=O)CNC1=O` (some centres unmarked) [1d] (I: Ac-WDCLDNRIGRRQCVKL-NH2 / II: Ac-WDCLDNRIGRRQCVKL-NH2; disulfide I:3-I:13, II:3-II:13; linker I:15-II:15 via X2; N-terminus and C-terminus assumed), for which, in assay [1], the “apoptosis induction in BJAB cells” value is recorded as “underwent apoptosis”. In assay [2], this compound yielded a koff of 0.0014 s⁻¹ and a kon of 28000 M⁻¹ s⁻¹. Moreover, in assay [2] (setting [5]), the Rmax is on record as 38. In assay [2] (setting [6]), this compound returned an Rmax of 13. For the same compound, the “apoptosis induction in HCT116 cells” value in assay [3] was “strong resistance”. For the same compound, the “apoptosis induction in Jurkat cells” value in assay [4] is reported as “strong resistance”.

Regarding `CC[C@H](C)[C@@H]1NC(=O)[C@H](CCCNC(=N)N)NC(=O)[C@H](CC(N)=O)NC(=O)[C@H](CC(=O)O)NC(=O)[C@H](CC(C)C)NC(=O)[C@@H](NC(=O)[C@H](CC(=O)O)NC(=O)[C@H](Cc2c[nH]c3ccccc23)NC(C)=O)CSSC[C@@H](C(=O)N[C@H](C(=O)N[C@@H](CCCCN)C(=O)N[C@@H](CC(C)C)C(N)=O)C(C)C)NC(=O)[C@H](CCC(N)=O)NC(=O)[C@H](CCCNC(=N)N)NC(=O)[C@H](CCCNC(=N)N)NC(=O)CNC1=O` [1m] (Ac-WDCLDNRIGRRQCVKL-NH2; disulfide 3-13; N-terminus and C-terminus assumed), in assay [2], the koff was 0.0026 s⁻¹ and the kon came to 5300 M⁻¹ s⁻¹. Also, the Rmax in assay [2] (setting [5]) was determined as 33. The Rmax in assay [2] (setting [6]) came to 11.
